Reference: patent US20110091577A1, “DRUG RELEASE COATINGS ON CALCUIM PHOSPHATE AND USES THEREOF” (priority 2008, published 2011)

Assays:
[1] = Gentamicin release study, parallel release reactions in PBS buffer; assay type: physicochemical; details: FIG. 2A; 6.0 mg solid in 1.50 mL PBS, 37° C., pH 7.4
Experimental: Gentamicin and vancomycin loading and release are presented for a homopolymer system where the antibiotic gentamicin or vancomycin is bound to hydroxyapatite (HA) using commercially available poly-L-glutamate. This corresponds to the schematic illustrated in FIG. 1A. The experiment consisted of producing gentamicin or vancomycin adsorbed on poly-L-glutamate coated hydroxyapatite, and measuring the drug's rate of release into phosphate-buffered saline at 20° C. or 37° C. and pH 7.4, relative to a drug/hydroxyapatite control without the polymer. Gentamicin release study—Parallel release reactions: Gentamicin release rates from the experimental sample (G/pgHA) and control (G/HA) were measured by running multiple release reactions of each in parallel and stopping the reactions at different times. In each release sample 6.0 mg of solid was mixed in 1.50 mL of PBS buffer in an Eppendorf tube in a 37° C. shaker bath. Samples were removed from the bath at 15 minute intervals, centrifuged for 30 seconds, and the supernatant saved for later analysis.

[2] = system: staphylococci; details: literature value (de Neeling et al., 1998); cited from earlier work

Q: With gentamicin as the substance, how does the “time for adsorbed gentamicin to reach equilibrium with the buffer” value [1] read?
A: Its value is “within one hour”.

Q: And the “minimum inhibitory concentration required to kill staphylococci” value [2]?
A: Its value is 4 µg/mL.
